In patent publication US20160272645A1, “Heterocyclic Compounds and Methods of Use” (MEDIVATION TECHNOLOGIES, INC., priority 2013, published 2016):

Key:
Type in all cases: biochemical
[1] = molecular target: T1, PI3Kα (Homo sapiens, UniProt P42336); experiment: PI3K isoform profiling, PI3Kα (PI3Kδ protocol); settings: for IC50: 10 dose IC50; for inhibition at 0.3 µM: compound 0.3 μM, read-out: PI3Kα @ 0.3 μM (% Inh)
T1 construct: purchased Reaction Biology Corporation
Excerpt: PI3Kδ assay: The PIP3 product is detected by displacement of biotin-PIP3 from an energy transfer complex consisting of Europium labeled anti-GST monoclonal antibody, a GST-tagged pleckstrin homology (PH) domain, biotinylated PIP3 and Streptavidin-Allophycocyanin (APC). Excitation of Europium in the complex results in an energy transfer to the APC and a fluorescent emission at 665 nm. The PIP3 product formed by PI3-Kinase (h) activity displaces biotin-PIP3 from the complex resulting in a loss of energy transfer and thus a decrease in signal. This is a 3-step reaction: First, the kinase reaction with PIP2 substrate is carried out in the presence of ATP (10 μM), and the reaction is quenched with stop Solution, and then finally detect by adding Detection Mixture followed by incubation (10 min). Reaction procedure: 1) Prepare substrate in freshly prepared Reaction Buffer. 2) Deliver kinase into the substrate solution and gently mix. 3) Deliver compounds in 100% DMSO (1 μM) into the kinase reaction mixture by Acoustic technology (Echo550; nanoliter range), incubate for 10 min at RT. 4) Deliver ATP into the reaction mixture to initiate the reaction. 5) Incubate for 30 min at 30° C. 6) Quench the reaction with Stop Solution. 7) Add Detection Mixture, and incubate for overnight. 8) Measure HTRF: Ex=320 nm, ratio of Em=615 nm and Em=665 nm. The emission ratio is converted into μM PIP3 production based on PIP3 standard curves. The nonlinear regression to obtain the standard curve and IC50 values are performed using Graphpad Prism software. Assay Buffer: HEPES 50 mM (pH7.0), NaN3 0.02%, BSA 0.01%, Orthovanadate 0.1 mM, 1% DMSO. Detection buffer: HEPES 10 mM (pH7.0), BSA 0.02%, KF 0.16 M, EDTA 4 mM. Substrate: 10 μM PIP2 substrate (PI(4,5)P2).
Compounds of the invention were profiled in a 10 dose IC50 panel against PI3Kα, PI3Kβ, and PI3Kγ kinases, provided by Reaction Biology Corporation, applied to the PI3Kδ protocol provided in Example B1.

[2] = molecular target: T2, BMX/ETK (Homo sapiens, UniProt P51813); experiment: BMX/ETK kinase profiling (BTK protocol); settings: compound 0.3 μM; read-out: BMX/ETK @ 0.3 μM (% Inh)
T2 construct: purchased Reaction Biology Corporation
T2 sequence (P51813 1-675): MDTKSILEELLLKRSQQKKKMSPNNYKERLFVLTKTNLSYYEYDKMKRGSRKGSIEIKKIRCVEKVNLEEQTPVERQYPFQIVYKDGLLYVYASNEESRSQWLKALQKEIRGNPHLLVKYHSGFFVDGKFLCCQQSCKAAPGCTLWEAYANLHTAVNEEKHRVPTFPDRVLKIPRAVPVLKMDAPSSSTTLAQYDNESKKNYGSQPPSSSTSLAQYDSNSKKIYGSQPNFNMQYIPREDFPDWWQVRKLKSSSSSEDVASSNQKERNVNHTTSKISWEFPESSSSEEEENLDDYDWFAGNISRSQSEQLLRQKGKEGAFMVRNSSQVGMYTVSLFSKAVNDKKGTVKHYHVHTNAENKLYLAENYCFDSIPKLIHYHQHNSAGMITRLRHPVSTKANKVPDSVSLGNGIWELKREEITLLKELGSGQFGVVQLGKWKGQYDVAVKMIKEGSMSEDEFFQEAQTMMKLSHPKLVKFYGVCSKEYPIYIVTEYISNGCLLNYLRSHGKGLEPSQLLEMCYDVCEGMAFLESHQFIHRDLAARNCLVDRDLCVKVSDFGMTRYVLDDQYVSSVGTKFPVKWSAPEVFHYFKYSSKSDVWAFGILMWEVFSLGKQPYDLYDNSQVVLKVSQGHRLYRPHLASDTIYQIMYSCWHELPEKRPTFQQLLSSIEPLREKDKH
Experimental: (§1) BTK assay: In vitro profiling protein kinases was performed using the “HotSpot” assay platform. Briefly, specific kinase/substrate pairs along with required cofactors were prepared in reaction buffer. Compounds were prepared as 10 mM stock solutions in DMSO. Compounds were delivered into the reaction, followed 15-20 minutes later by addition of a mixture of ATP (Sigma, St. Louis Mo.) and ^33P ATP (Perkin Elmer, Waltham Mass.) to a final concentration of 10 μM. Reactions were carried out at RT for 120 min, followed by spotting of the reactions onto P81 ion exchange filter paper (Whatman Inc., Piscataway, N.J.). Unbound phosphate was removed by extensive washing of filters in 0.75% Phosphoric acid. […] ICso values and curve fits were obtained using Prism (GraphPad Software). Buffer Conditions: 20 mM Hepes (pH 7.5), 10 mM MgCl2, 1 mM EGTA, 0.02% Brij35, 0.02 mg/mL BSA, 0.1 mM Na3VO4, 2 mM DTT, 1% DMSO.
(§2) Compounds of the invention were profiled in a 10 dose IC50 panel against BMX/ETK, ITK and TEC kinases, provided by Reaction Biology Corporation, applied to the BTK protocol provided in Example B1.

[3] = molecular target: T3, TEC (Homo sapiens, UniProt P42680); experiment: TEC kinase profiling (BTK protocol); settings: compound 0.3 μM; read-out: TEC @ 0.3 μM (% Inh)
T3 construct: purchased Reaction Biology Corporation
T3 sequence (P42680 1-631): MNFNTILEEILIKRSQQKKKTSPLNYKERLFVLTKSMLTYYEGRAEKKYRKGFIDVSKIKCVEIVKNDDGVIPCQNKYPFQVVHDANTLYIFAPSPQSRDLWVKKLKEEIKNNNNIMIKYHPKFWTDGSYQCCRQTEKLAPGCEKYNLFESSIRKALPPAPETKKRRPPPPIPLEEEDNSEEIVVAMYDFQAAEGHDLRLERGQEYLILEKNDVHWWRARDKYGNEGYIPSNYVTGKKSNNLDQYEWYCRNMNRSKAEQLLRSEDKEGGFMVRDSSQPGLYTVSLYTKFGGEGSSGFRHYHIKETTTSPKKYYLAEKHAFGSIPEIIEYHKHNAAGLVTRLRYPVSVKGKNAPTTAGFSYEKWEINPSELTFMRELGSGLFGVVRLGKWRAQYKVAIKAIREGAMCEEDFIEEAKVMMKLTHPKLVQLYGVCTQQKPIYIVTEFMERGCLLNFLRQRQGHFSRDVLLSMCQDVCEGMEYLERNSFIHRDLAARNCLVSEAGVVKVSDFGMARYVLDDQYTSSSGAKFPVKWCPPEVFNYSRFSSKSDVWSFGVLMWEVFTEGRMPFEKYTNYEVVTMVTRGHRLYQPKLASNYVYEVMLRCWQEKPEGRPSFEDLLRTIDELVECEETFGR
Experimental: as §1, §2

T1 sequence (P42336 whole entry, canonical isoform): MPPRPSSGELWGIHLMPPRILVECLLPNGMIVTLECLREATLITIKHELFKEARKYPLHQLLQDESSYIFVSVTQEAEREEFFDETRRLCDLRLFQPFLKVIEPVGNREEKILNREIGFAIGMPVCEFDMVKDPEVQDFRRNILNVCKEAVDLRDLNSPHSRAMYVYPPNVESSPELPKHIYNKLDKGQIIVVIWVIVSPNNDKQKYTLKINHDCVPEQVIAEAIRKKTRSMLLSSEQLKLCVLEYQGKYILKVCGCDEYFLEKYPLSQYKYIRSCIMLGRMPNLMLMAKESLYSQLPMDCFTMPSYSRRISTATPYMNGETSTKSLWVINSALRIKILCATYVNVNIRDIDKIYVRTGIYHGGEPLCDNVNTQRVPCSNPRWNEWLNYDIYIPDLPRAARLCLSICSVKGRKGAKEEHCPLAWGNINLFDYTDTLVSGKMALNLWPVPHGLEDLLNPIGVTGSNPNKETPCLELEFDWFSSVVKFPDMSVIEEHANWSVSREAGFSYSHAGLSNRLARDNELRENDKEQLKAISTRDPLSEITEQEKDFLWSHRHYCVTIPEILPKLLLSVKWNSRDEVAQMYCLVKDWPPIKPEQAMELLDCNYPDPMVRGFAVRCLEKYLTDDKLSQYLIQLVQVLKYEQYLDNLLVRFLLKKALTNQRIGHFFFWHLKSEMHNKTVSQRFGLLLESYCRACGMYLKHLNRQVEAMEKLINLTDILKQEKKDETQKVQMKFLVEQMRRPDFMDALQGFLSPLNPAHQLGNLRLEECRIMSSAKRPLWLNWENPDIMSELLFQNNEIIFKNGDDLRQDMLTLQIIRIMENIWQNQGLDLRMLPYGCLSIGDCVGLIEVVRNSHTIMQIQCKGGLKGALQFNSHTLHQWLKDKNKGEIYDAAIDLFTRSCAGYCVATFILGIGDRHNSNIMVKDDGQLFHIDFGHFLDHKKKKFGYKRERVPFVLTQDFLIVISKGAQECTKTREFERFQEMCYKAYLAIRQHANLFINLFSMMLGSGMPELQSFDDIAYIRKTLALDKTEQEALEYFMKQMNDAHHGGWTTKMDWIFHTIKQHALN
T1 sequence (P27986 whole entry partner, canonical isoform): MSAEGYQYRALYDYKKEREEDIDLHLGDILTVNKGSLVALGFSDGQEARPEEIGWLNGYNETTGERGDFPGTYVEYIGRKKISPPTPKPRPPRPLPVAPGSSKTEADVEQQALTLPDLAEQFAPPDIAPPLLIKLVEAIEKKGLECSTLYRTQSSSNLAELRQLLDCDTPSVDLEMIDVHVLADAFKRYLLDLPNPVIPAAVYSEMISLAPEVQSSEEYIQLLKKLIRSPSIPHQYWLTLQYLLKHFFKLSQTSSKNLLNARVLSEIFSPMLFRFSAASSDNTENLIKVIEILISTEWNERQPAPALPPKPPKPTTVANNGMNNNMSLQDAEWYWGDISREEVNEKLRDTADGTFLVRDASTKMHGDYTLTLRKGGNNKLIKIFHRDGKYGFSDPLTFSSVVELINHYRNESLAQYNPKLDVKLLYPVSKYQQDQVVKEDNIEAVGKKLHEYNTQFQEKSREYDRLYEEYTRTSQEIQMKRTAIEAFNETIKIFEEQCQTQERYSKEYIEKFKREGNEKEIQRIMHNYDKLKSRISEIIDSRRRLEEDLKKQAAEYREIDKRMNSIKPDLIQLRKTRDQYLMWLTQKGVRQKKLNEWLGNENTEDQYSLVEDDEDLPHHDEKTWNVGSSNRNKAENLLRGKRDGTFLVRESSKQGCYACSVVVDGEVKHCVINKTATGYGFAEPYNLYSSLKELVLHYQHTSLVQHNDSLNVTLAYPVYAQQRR

IC50 [1]	inhibition at 0.3 µM [2]	inhibition at 0.3 µM [3]	inhibition at 0.3 µM [1]	SMILES
3220 nM	93.5%	68.7%		C=CC(=O)N(CCn1nc(-c2cc(O)cc(F)c2)c2c(N)ncnc21)Cc1ccccc1F [Compound 11, N-[2-[4-amino-3-(3-fluoro-5-hydroxy-phenyl)pyrazolo[3,4-d]pyrimidin-1-yl]ethyl]-N-[(2-fluorophenyl)methyl]prop-2-enamide]
4210 nM	98.5%	72.6%	20.1%	C=CC(=O)N(CCn1nc(-c2cc(O)cc(F)c2)c2c(N)ncnc21)c1ccccc1 [Compound 2, N-(2-(4-amino-3-(3-fluoro-5-hydroxyphenyl)-1H-pyrazolo[3,4-d]pyrimidin-1-yl)ethyl)-N-phenylacrylamide]
504 nM	93%	66.1%		C=CC(=O)N(CCn1nc(-c2cc(O)cc(F)c2)c2c(N)ncnc21)Cc1ccc(F)cc1 [Compound 10, N-{2-[4-amino-3-(3-fluoro-5-hydroxyphenyl)-1H-pyrazolo [3,4-d]pyrimidin-1-yl]ethyl}-N-[(4-fluorophenyl)methyl]prop-2-enamide]
869 nM	94.2%	71.6%		C=CC(=O)N(CCn1nc(-c2cc(O)cc(F)c2)c2c(N)ncnc21)Cc1ccc(Cl)cc1 [Compound 12, N-{2-[4-amino-3-(3-fluoro-5-hydroxyphenyl)-1H-pyrazolo[3,4-d]pyrimidin-1-yl]ethyl}-N-[(4-chlorophenyl)methyl]prop-2-enamide]
3320 nM	92.5%	48.8%	26.4%	C=CC(=O)N(CCn1nc(-c2cc(O)cc(F)c2)c2c(N)ncnc21)Cc1ccccc1 [Compound 5, N-(2-(4-amino-3-(3-fluoro-5-hydroxyphenyl)-1H-pyrazolo[3,4-d]pyrimidin-1-yl)ethyl)-N-benzylacrylamide]
	43.5%	-1.13%	50.5%	Nc1ncnc2c1c(-c1cc(O)cc(F)c1)nn2CCNc1ccccc1 [Compound 1, 3-(4-amino-1-(2-(phenylamino)ethyl)-1H-pyrazolo [3,4-d]pyrimidin-3-yl)-5-fluorophenol]
290 nM	97.2%	75%		C=CC(=O)N(CCn1nc(-c2cc(O)c(F)c(F)c2)c2c(N)ncnc21)Cc1ccc(Cl)cc1 [Compound 16, N-{2-[4-amino-3-(3,4-difluoro-5-hydroxyphenyl)-1H-pyrazolo[3,4-d]pyrimidin-1-yl]ethyl}-N-[(4-chlorophenyl)methyl]prop-2-enamide]
